Converted amounts (≈) assume the structure as drawn. Where two headings read alike, the source gives them in different places.

Data set [1] deals with NCI-ADR/RES (ovarian expressing phenotype multiple drugs resistance) cells. As to the kind of experiment: Antiproliferative sulforhodamine B assay, NCI-ADR/RES. It counts as cell-based. The following applies: Homo sapiens, NCI-ADR/RES drug resistant ovary, 48 h treatment, SRB; for IC100: read-out: Total growth inhibition (TGI).
Experimental: (§1) The in vitro antiproliferative activity of populene analogues 2a–e and 3a–e was investigated toward nine human tumor cell lines [CNS (U251), breast (MCF-7), ovarian (NCI-ADR/RES, OVCAR-03), renal (786-0), non-small cell lung (NCI-H460), prostate (PC-3), colon (HT-29) and leukemia (k-562)] and one human normal cell line (HaCat, human keratinocytes). The populene D analogues were tested at concentrations between 0.25 and 250 µg/mL and doxorubicin (DOX 0.025–25 µg/mL) was used as positive control. […] To analyze the GI50 parameter, mean log GI50 was calculated by conversion of the GI50 values for each tumor cell line tested (not including the normal cell line HaCat) against a test compound and then these values were averaged.
(§2) Stock cultures were grown in 5 mL of RPMI 1640 (GIBCO BRL, Life Technologies) supplemented with 5% of fetal bovine serum. Penicillin:streptomycin (1,000 μg mL^−1:1,000 UI mL^‑1, 1 mL L^−1) was added to the experimental cultures.
(§3) Afterwards cells were fixed with 50% trichloroacetic acid and cell proliferation determined by spectrophotometric quantification (540 nm) of cellular protein content using sulforhodamine B assay[20]. Doxorubicin (0.025–25 mg/mL) was used as positive control. Three measurements were obtained at the beginning of incubation (time zero, T0) and 48 h post-incubation for compound-free (C) and tested (T) cells. Cell proliferation was determined according to the equation 100 × [(T − T0)/C − T0], for T0 < T ≤ C, and 100 × [(T − T0)/T0], for T ≤ T0 and a concentration-response curve for each cell line was plotted and, from these curves, GI50 (concentration causing 50% growth inhibition) and TGI (concentration that promotes total growth inhibition) were determined by means of non-linear regression analysis using software ORIGIN 8.0 (OriginLab Corporation) [20, 21] The average activity (mean of log GI50) of each compound tested was also determined using MS Excel software.
For a further data set, the system named is OVCAR-3 (ovarian) cells. As to the kind of experiment: Antiproliferative sulforhodamine B assay, OVCAR-3. The class given is cell-based. The settings on record: Homo sapiens, OVCAR-3 ovary, 48 h treatment, SRB; for IC100: read-out: Total growth inhibition (TGI). On the technique in general: Sulforhodamine B stains cellular protein and so reports cell mass.

The test system of data set [2] is nine human tumor cell lines. In words: Average antiproliferative activity over the tumor cell line panel (NCI criteria). The class given is cell-based. The settings on record: for GI50: Homo sapiens, 48 h; for Cytostatic activity classified in words by NCI criteria on mean logGI50: weak 1.1-1.5, moderate 0-1.1, potent <0, inactive >1.5.
Experimental: as §1
(§4) Cells in 96-well plates (100 μL cells/well) were exposed to various concentrations of compounds 2a–d and 3a–d diluted in DMSO (0.25, 2.5, 25 and 250 μg/mL) at 37 °C, 5% of CO2 for 48 h. […] Afterwards cells were fixed with 50% trichloroacetic acid and cell proliferation determined by spectrophotometric quantification (540 nm) of cellular protein content using sulforhodamine B assay[20]. Doxorubicin (0.025–25 mg/mL) was used as positive control. Three measurements were obtained at the beginning of incubation (time zero, T0) and 48 h post-incubation for compound-free (C) and tested (T) cells. Cell proliferation was determined according to the equation 100 × [(T − T0)/C − T0], for T0 < T ≤ C, and 100 × [(T − T0)/T0], for T ≤ T0 and a concentration-response curve for each cell line was plotted and, from these curves, GI50 (concentration causing 50% growth inhibition) and TGI (concentration that promotes total growth inhibition) were determined by means of non-linear regression analysis using software ORIGIN 8.0 (OriginLab Corporation) [20, 21] The average activity (mean of log GI50) of each compound tested was also determined using MS Excel software.
The subject of a further data set is PC-3 (prostate) cells. As to the kind of experiment: Antiproliferative sulforhodamine B assay, PC-3. It counts as cell-based. The settings on record: Homo sapiens, Prostate cell, 48 h treatment, SRB; for IC100: read-out: Total growth inhibition (TGI).
A further data set deals with MCF-7 (breast) cells. In words: Antiproliferative sulforhodamine B assay, MCF-7. It counts as cell-based. The settings on record: Homo sapiens, MCF7, MCF-7 mammary, 48 h treatment, SRB; for IC100: read-out: Total growth inhibition (TGI).
In another data set the test system is HT-29 (colon) cells. As to the kind of experiment: Antiproliferative sulforhodamine B assay, HT-29. It counts as cell-based. The following applies: Homo sapiens, 48 h treatment, SRB; for IC100: read-out: Total growth inhibition (TGI).
In data set [3] the test system is HaCat (immortalized human keratinocytes). As to the kind of experiment: Antiproliferative sulforhodamine B assay, HaCat normal cell line. It counts as cell-based. The settings on record: 48 h treatment, SRB.
Experimental: as §1, §2, §3
Assay in data set [4]: as above
Experimental: as §1, §2, §3
It counts as cell-based, human. The following applies: human; HaCat normal immortalized keratinocytes, 48 h treatment, SRB.

The test system of another data set is 786-0 (renal) cells. As to the kind of experiment: Antiproliferative sulforhodamine B assay, 786-0. It counts as cell-based. The settings on record: Homo sapiens, 786-0 kidney, 48 h treatment, SRB; for IC100: read-out: Total growth inhibition (TGI).
A further data set deals with K-562 (leukemia) cells. As to the kind of experiment: Antiproliferative sulforhodamine B assay, K-562. The following applies: Homo sapiens, K562, 48 h treatment, SRB; for IC100: read-out: Total growth inhibition (TGI). It counts as cell-based.
In data set [5] the test system is NCI-H460 (lung, non-small cells) cells. As to the kind of experiment: Antiproliferative sulforhodamine B assay, NCI-H460. The settings on record: for GI50: Homo sapiens, NCI-H460, 48 h; for Total growth inhibition (TGI): NCI-H460 lung, 48 h treatment, SRB.
Experimental: (§5) The populene D analogues were tested at concentrations between 0.25 and 250 µg/mL and doxorubicin (DOX 0.025–25 µg/mL) was used as positive control. […] To analyze the GI50 parameter, mean log GI50 was calculated by conversion of the GI50 values for each tumor cell line tested (not including the normal cell line HaCat) against a test compound and then these values were averaged.
as §2, §3
The next data set concerns U251 (glioma) cells. In words: Antiproliferative sulforhodamine B assay, U251. It counts as cell-based. The following applies: Homo sapiens, U-251, 48 h treatment, SRB; for IC100: read-out: Total growth inhibition (TGI).
The next data set relates to breast cancer (MCF-7). Details: method as in PMID 18553924. The settings on record: cited from earlier work.
A further data set relates to oral cancer (KB). Details: method as in PMID 18553924. The following applies: cited from earlier work.
The test system of another data set is B. subtilis. Details: method as in PMID 18553924. The settings on record: cited from earlier work.
The subject of the next data set is cervical cancer (HeLa). Details: method as in PMID 18553924. The settings on record: cited from earlier work.
A further data set has as its system colon cancer (HT-29). Details: method as in PMID 18553924. The settings on record: cited from earlier work.
[6] abbreviates: average of logGI50 (GI50 in μg/mL) over tumor cell lines tested, not including HaCat, read-out: Mean logGI50 (converted).
Setting [7] is: class symbol by NCI's criteria on mean logGI50, read-out: Mean logGI50 activity class (NCI's criteria).

Experimental for 786-0 (renal) cells: as §1, §2, §3
Experimental for HT-29 (colon) cells: as §5, §2, §3
Experimental for K-562 (leukemia) cells: as §1, §4
Experimental for MCF-7 (breast) cells: as §1, §2, §3
Experimental for OVCAR-3 (ovarian) cells: as §5, §2, §3
Experimental for PC-3 (prostate) cells: as §5, §2, §3
Experimental for U251 (glioma) cells: as §1, §2, §3

For `CC1COC(C)(C)C2=C1c1cccc(O)c1CC2` (centres unmarked) [3a, 1,4,4-Trimethyl-1,4,5,6-tetrahydro-2H-benzo[f]isochromen-7-ol], the melting point is 139.2 to 140.3 °C. Moreover, in data set [1], the GI50 is above 250 µg/mL and the IC100 was above 250 µg/mL. Moreover, in the data set on OVCAR-3 (ovarian) cells, the GI50 was above 250 µg/mL and the IC100 was above 250 µg/mL. The GI50 in data set [2] (setting [6]) was above 209 µg/mL. Also, in data set [2] (setting [7]), the GI50 is above 31.6 µg/mL. Also, in data set [2], the “Cytostatic activity classified in words by NCI criteria on mean logGI50” value (“Cytostatic activity classified … on mean logGI50” below) is “inactive”. In the data set on PC-3 (prostate) cells, the GI50 was above 250 µg/mL and the IC100 was above 250 µg/mL. Besides, in the data set with MCF-7 (breast) cells, the GI50 was above 250 µg/mL and the IC100 is above 250 µg/mL. In the data set with HT-29 (colon) cells, the GI50 was above 250 µg/mL and the IC100 is above 250 µg/mL. In addition, the “Total growth inhibition (TGI)” value in [3] was above 250 µg/mL. This compound showed a GI50 at 48 h in data set [4] above 250 µg/mL. Further, in the data set on 786-0 (renal) cells, the GI50 amounted to 37.3 µg/mL (≈ 153 µM) and the IC100 is above 250 µg/mL. Further, in the data set on K-562 (leukemia) cells, the GI50 is above 250 µg/mL and the IC100 is above 250 µg/mL. In [5], the GI50 was above 250 µg/mL and the “Total growth inhibition (TGI)” value is above 250 µg/mL. In the data set with U251 (glioma) cells, the GI50 was above 250 µg/mL and the IC100 was above 250 µg/mL.
Take `CC1COC(C)(C)C2=C1c1ccc(O)cc1CC2` (centres unmarked) [3b, 1,4,4-Trimethyl-1,4,5,6-tetrahydro-2H-benzo[f]isochromen-8-ol]: the melting point was 199 to 201 °C. For the same compound, in data set [1], the GI50 is above 250 µg/mL and the IC100 was above 250 µg/mL. Also, in the data set with OVCAR-3 (ovarian) cells, the GI50 was above 250 µg/mL and the IC100 was above 250 µg/mL. The GI50 in [2] (setting [6]) was above 100 µg/mL. The GI50 in data set [2] (setting [7]) is above 31.6 µg/mL. In addition, in data set [2], the “Cytostatic activity classified … on mean logGI50” value is “inactive”. In addition, in the data set on PC-3 (prostate) cells, the GI50 is above 250 µg/mL and the IC100 is above 250 µg/mL. In the data set on MCF-7 (breast) cells, the GI50 amounted to 108 µg/mL (≈ 441 µM) and the IC100 was above 250 µg/mL. In the data set with HT-29 (colon) cells, the GI50 amounted to 78.4 µg/mL (≈ 321 µM) and the IC100 was above 250 µg/mL. Further, the “Total growth inhibition (TGI)” value in data set [3] is above 250 µg/mL. In addition, the GI50 at 48 h in data set [4] is above 250 µg/mL. Further, in the data set with 786-0 (renal) cells, the GI50 is 36.8 µg/mL (≈ 151 µM) and the IC100 was above 250 µg/mL. In the data set with K-562 (leukemia) cells, the GI50 stood at 41.2 µg/mL (≈ 169 µM) and the IC100 was above 250 µg/mL. For the same compound, in data set [5], the GI50 was 41.4 µg/mL (≈ 169 µM) and the “Total growth inhibition (TGI)” value was above 250 µg/mL. In the data set with U251 (glioma) cells, the GI50 was 46.3 µg/mL (≈ 189 µM) and the IC100 was above 250 µg/mL.
As for `CC1COC(C)(C)C2=C1c1cc(O)ccc1CC2` (centres unmarked) [3c, 1,4,4-Trimethyl-1,4,5,6-tetrahydro-2H-benzo[f]isochromen-9-ol], the melting point was 160 to 162 °C. In addition, in data set [1], the GI50 came to 25 µg/mL (≈ 102 µM) and the IC100 worked out at 200 µg/mL. In the data set on OVCAR-3 (ovarian) cells, the GI50 came out at 1.8 µg/mL (≈ 7.37 µM) and the IC100 came to 31.5 µg/mL. Further, the GI50 in [2] (setting [6]) was 14.1 µg/mL (≈ 57.8 µM). Further, in [2] (setting [7]), the GI50 lay within 12.6 to 31.6 µg/mL (≈ 51.5 to 129 µM). Moreover, the “Cytostatic activity classified … on mean logGI50” value in data set [2] was “weak”. For the same compound, in the data set with PC-3 (prostate) cells, the GI50 is 24.5 µg/mL (≈ 100 µM) and the IC100 came out at 51.8 µg/mL. Further, in the data set on MCF-7 (breast) cells, the GI50 worked out at 24.7 µg/mL (≈ 101 µM) and the IC100 worked out at 45 µg/mL. In the data set with HT-29 (colon) cells, the GI50 was found to be 22.9 µg/mL (≈ 93.7 µM) and the IC100 is 53.3 µg/mL. Moreover, in data set [3], the “Total growth inhibition (TGI)” value was above 250 µg/mL. Also, the GI50 at 48 h in data set [4] came out at 3.6 µg/mL (≈ 14.7 µM). In the data set on 786-0 (renal) cells, the GI50 was found to be 24.6 µg/mL (≈ 101 µM) and the IC100 was 43 µg/mL. In the data set on K-562 (leukemia) cells, the GI50 amounted to 8.7 µg/mL (≈ 35.6 µM) and the IC100 is 39.2 µg/mL. Moreover, in data set [5], the GI50 amounted to 24.2 µg/mL (≈ 99 µM) and the “Total growth inhibition (TGI)” value is 45.9 µg/mL. In the data set on U251 (glioma) cells, the GI50 was determined as 27.8 µg/mL (≈ 114 µM) and the IC100 was found to be 67.9 µg/mL.
For `Cc1cc2c(c(O)c1O)[C@H](C)CC1=C2[C@@H](C)COC1(C)C` [Populene D], the 50% inhibitory concentration (IC50) in the data set with breast cancer (MCF-7) is recorded as 0.95 µg/mL (≈ 3.29 µM); in the data set with oral cancer (KB), 3.10 µg/mL (≈ 10.7 µM); in the data set on cervical cancer (HeLa) it was 1.85 µg/mL (≈ 6.41 µM); in the data set on colon cancer (HT-29), 2.37 µg/mL (≈ 8.22 µM). For the same compound, in the data set with B. subtilis, the MIC is on record as 4.69 µg/mL (≈ 16.3 µM).

The term melting point denotes the temperature of the solid-liquid transition. In general, IC50 refers to the concentration that gives 50% inhibition. For orientation: MIC means the lowest concentration found to suppress growth.

These data come from PMC6269118, “Populene D Analogues: Design, Concise Synthesis and Antiproliferative Activity” (Molecules, 2012).
